IC50 data for 33 compounds are collected here from patent US20260242395A1, “AMINOHETEROARYL KINASE INHIBITORS” (ALLORION THERAPEUTICS INC, priority 2022, published 2026).

One assay has as its target T1, CDK4/CyclinD1 (Homo sapiens, UniProt P11802).
T1 construct: purchased ProQinase 0142-0143-1
Briefly: CDK4/CyclinD1 kinase inhibitory activity (Caliper mobility shift). The format is biochemical. The conditions noted are these: enzyme 20 nM, ATP 672 uM, 28° C. 30 min; read-out: CDK4/Cyclin D1 IC50. The method, then: CDK4/CyclinD1 kinase inhibitory activity (IC50): 5 μl of various dilutions of test compound in 1× kinase buffer (20 mM HEPES, pH 7.5, 10 mM MgCl2, 2 mM DTT and 0.01% Triton X-100) was mixed with 10 μL of either CDK4/Cyclin D1 (ProQinase, 0142-0143-1 #, final concentration 20 nM in 1× Kinase buffer) or in 384 plates and incubated at room temperature for 10 min. To initiate each reaction, 10 μL of peptide solution containing fluorescently-labeled-peptide 8(5-FAM-IPTSPITTTYFFFKKK-COOH, GL, 112396 #, final concentration 3000 nM) and ATP (final concentration 672 uM for CDK4/CyclinD1) in 1×Kinase buffer was added to each of the wells containing test compound and CDK4/CyclinD1 mixture. The reaction is then allowed to proceed at 28° C. for 30 min and terminated by the addition of 25 μL stop buffer (100 mM HEPES pH 7.5, 50 mM EDTA, 0.2% Coating Reagent #3 (Perkin Elmer, 760050 #) and 0.015% Brij-35).
(§1) Following the kinase reaction, Caliper EZ reader II (Downstream voltages: −500V, Upstream voltages: −2250V, Base pressure −0.5 PSI, Screen pressure −1.2 PSI) was used to separate the phosphorylated (product) and the unphosphorylated (substrate) fluorescently-labeled peptide 8 based on their different mobility. Both substrate and product were measured and the ratio of these values were used to generate % conversion by Caliper EZ reader II. These conversion values were then transformed into % inhibition of kinase activity using the formula: % Inhibition=[(MA−X)/(MA−MI)]×100% where MA=conversion value of DMSO only controls, MI=conversion value of no enzyme controls and X=conversion value at any given compound dose. IC50 values were then calculated by plotting dose-response curves and then using the XLfit application in Excel software.

The next assay deals with T2, CDK6/CyclinD3 (Homo sapiens, UniProt Q00534).
T2 construct: purchased Carna 04-107
Briefly: CDK6/CyclinD3 kinase inhibitory activity (Caliper mobility shift). The format is biochemical. As to conditions: enzyme 15 nM, ATP 800 μM, 28° C. 30 min; read-out: CDK6/Cyclin D3 IC50. How it is done: CDK6/CyclinD3 kinase inhibitory activity (IC50): 5 μl of various dilutions of test compound in 1× kinase buffer (50 mM HEPES pH 7.5, 10 mM MgCl2, 2 mM DTT and 0.01% Brij-35) was mixed with 10 μL of CDK6/CyclinD3 (Carna, 04-107 #, final concentration 15 nM in 1× Kinase buffer) in 384 plates and incubated at room temperature for 10 min. To initiate each reaction, 10 μL of peptide solution containing fluorescently-labeled -peptide 8(5-FAM-IPTSPITTTYFFFKKK-COOH, GL, 112396 #, final concentration 3000 nM) and ATP (final concentration 800 μM for CDK6/CyclinD3 in 1× Kinase buffer was added to each of the wells containing test compound and CDK6/CyclinD3. The reaction is then allowed to proceed at 28° C. for 30 min and terminated by the addition of 25 μL stop buffer (100 mM HEPES pH 7.5, 50 mM EDTA, 0.2% Coating Reagent #3 (Perkin Elmer, 760050 #) and 0.015% Brij-35).
as §1

T2 sequence (Q00534 whole entry): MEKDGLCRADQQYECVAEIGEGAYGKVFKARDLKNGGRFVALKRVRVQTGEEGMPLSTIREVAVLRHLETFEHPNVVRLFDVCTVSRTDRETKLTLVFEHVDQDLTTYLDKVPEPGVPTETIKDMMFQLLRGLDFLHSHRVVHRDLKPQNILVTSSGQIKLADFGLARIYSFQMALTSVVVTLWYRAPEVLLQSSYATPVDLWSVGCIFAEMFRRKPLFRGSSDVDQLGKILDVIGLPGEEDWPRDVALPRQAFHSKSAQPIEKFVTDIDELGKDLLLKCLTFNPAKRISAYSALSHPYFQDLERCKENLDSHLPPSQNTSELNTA
T2 sequence (P30281 whole entry partner): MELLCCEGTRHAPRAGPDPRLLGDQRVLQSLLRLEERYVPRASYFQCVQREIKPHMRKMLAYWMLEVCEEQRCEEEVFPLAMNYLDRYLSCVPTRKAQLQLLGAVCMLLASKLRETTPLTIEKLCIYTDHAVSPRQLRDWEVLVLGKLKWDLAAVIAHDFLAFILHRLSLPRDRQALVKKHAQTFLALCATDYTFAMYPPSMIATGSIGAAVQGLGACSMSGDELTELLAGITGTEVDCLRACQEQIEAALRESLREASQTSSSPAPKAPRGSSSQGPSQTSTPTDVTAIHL
T1 sequence (P11802 whole entry): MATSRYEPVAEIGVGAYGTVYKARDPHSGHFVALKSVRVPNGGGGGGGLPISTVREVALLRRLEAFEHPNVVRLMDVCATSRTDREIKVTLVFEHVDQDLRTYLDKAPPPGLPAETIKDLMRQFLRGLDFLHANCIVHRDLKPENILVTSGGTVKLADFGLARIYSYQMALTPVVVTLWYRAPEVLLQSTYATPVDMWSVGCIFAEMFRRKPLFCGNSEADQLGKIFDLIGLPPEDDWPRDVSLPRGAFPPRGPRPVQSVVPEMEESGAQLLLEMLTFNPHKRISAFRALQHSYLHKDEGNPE
T1 sequence (P24385 whole entry partner): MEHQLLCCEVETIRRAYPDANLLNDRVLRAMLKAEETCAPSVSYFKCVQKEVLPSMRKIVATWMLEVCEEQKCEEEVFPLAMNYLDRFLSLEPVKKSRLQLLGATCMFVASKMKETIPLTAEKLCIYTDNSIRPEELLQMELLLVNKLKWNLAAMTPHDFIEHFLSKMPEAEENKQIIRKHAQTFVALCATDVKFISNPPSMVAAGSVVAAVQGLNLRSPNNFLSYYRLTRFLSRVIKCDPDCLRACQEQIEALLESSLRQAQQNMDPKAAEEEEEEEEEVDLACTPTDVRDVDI

As for `[2H]C1([2H])c2cnc3c(F)cc(-c4nc(N[C@@H]5CCOC[C@H]5O)ncc4F)cc3c2CNC1(C)C` [Example 110], the IC50 was under 10 nM at CDK4/CyclinD1 and 100 to 1000 nM at CDK6/CyclinD3.

With `CC1(O)CCc2nc3c(F)cc(-c4nc(N[C@@H]5CCOC[C@H]5O)ncc4Cl)cc3cc21` (single isomer, unassigned) [Example 38b], the IC50 was under 10 nM on CDK4/CyclinD1 and 10 to 100 nM on CDK6/CyclinD3.

As for `COC1c2cnc3c(F)cc(-c4nc(N[C@@H]5CCOC[C@H]5O)ncc4F)cc3c2CNC1(C)C` (single isomer, unassigned) [Example 108a], the IC50 at CDK4/CyclinD1 was 10 to 100 nM; on CDK6/CyclinD3, at least 1000 nM.

In the case of `Cc1cc(C(C)(C)O)c2cc(-c3nc(N[C@@H]4CCOC[C@H]4O)ncc3F)cc(F)c2n1` [Example 76], the IC50 is 10 to 100 nM on CDK4/CyclinD1 and 100 to 1000 nM at CDK6/CyclinD3.

As to `CC(C)(O)c1cnc2ccc(-c3nc(N[C@@H]4CCOC[C@H]4O)ncc3Cl)cc2c1` [Example 6, (3S,4R)-4-((5-chloro-4-(3-(2-hydroxypropan-2-yl)quinolin-6-yl)pyrimidin-2-yl)amino)tetrahydro-2H-pyran-3-ol], the IC50 on CDK4/CyclinD1 fell in the range of 10 to 100 nM; at CDK6/CyclinD3, 100 to 1000 nM.

Regarding `[2H]c1nc(N[C@@H]2CCOC[C@H]2O)nc(-c2cc(F)c3nc(C)c(C(C)NC4CC4)cc3c2)c1F` (single isomer, unassigned) [Example 77b], the IC50 on CDK4/CyclinD1 is under 10 nM; on CDK6/CyclinD3 it was 100 to 1000 nM.

Consider `O[C@@H]1COCC[C@H]1Nc1ncc(Cl)c(-c2cc(F)c3ncc(C4(O)CCC4)cc3c2)n1` [Example 16, (3S,4R)-4-((5-chloro-4-(8-fluoro-3-(1-hydroxycyclobutyl)quinolin-6-yl)pyrimidin-2-yl)amino)tetrahydro-2H-pyran-3-ol], for which the IC50 was under 10 nM on CDK4/CyclinD1 and 100 to 1000 nM on CDK6/CyclinD3.

In the case of `Cc1nc2c(F)cc(-c3nc(N[C@@H]4CCOC[C@H]4O)ncc3Cl)cc2cc1C(C)NC1CC1` (single isomer, unassigned) [Example 73a], the IC50 lay within 10 to 100 nM on CDK4/CyclinD1 and 100 to 1000 nM on CDK6/CyclinD3.

Regarding `Cc1cnc(N[C@@H]2CCOC[C@H]2O)nc1-c1cc(F)c2nc(C)c3c(c2c1)CNC(C)(C)C3` [Example 104], the IC50 was 10 to 100 nM at CDK4/CyclinD1 and at least 1000 nM at CDK6/CyclinD3.

With `CC(NC1CC1)c1cnc2c(F)cc(-c3nc(N[C@@H]4CCOC[C@H]4O)ncc3Cl)cc2c1Cl` (single isomer, unassigned) [Example 90a], the figures for the IC50 at CDK4/CyclinD1 and at CDK6/CyclinD3 were 10 to 100 nM and 100 to 1000 nM, respectively.

In the case of `Cc1nc2c(F)cc(-c3ccnc(N[C@@H]4CCOC[C@H]4O)n3)cc2c(C)c1C(C)O` (single isomer, unassigned) [Example 82b], the figures for the IC50 at CDK4/CyclinD1 and on CDK6/CyclinD3 were 10 to 100 nM and 100 to 1000 nM, respectively.

With `[2H]c1nc(N[C@@H]2CCOC[C@H]2O)nc(-c2cc(F)c3nc([2H])c(C(C)(C)O)c(C)c3c2)c1F` [Example 95], the results for the IC50 on CDK4/CyclinD1 and on CDK6/CyclinD3 were under 10 nM and 10 to 100 nM, respectively.

Take `[2H]c1nc(N[C@@H]2CCOC[C@H]2O)nc(-c2cc(F)c3nc(C)c(C(C)NC4CC4)cc3c2)c1F` (single isomer, unassigned) [Example 77a]: the IC50 is under 10 nM at CDK4/CyclinD1 and 100 to 1000 nM on CDK6/CyclinD3.

Regarding `CN1Cc2c(cnc3c(F)cc(-c4nc(N[C@@H]5CCOC[C@H]5O)ncc4Cl)cc23)C(O)C1(C)C` (single isomer, unassigned) [Example 111b], the IC50 on CDK4/CyclinD1 was 100 to 1000 nM; at CDK6/CyclinD3 it was at least 1000 nM.

Consider `CCc1c(C(C)(C)O)nnc2c(F)cc(-c3nc(N[C@@H]4CCOC[C@H]4O)ncc3Cl)cc12` [Example 61, (3S,4R)-4-((5-chloro-4-(4-ethyl-8-fluoro-3-(2-hydroxypropan-2-yl)cinnolin-6-yl)pyrimidin-2-yl)amino)tetrahydro-2H-pyran-3-ol], for which the IC50 on CDK4/CyclinD1 fell in the range of 10 to 100 nM; on CDK6/CyclinD3, 100 to 1000 nM.

Take `Cc1nc2c(F)cc(-c3nc(N[C@@H]4CCOC[C@H]4O)ncc3Cl)cc2cc1C1CCCN1` (single isomer, unassigned) [Example 57b]: the IC50 at CDK4/CyclinD1 is 10 to 100 nM; on CDK6/CyclinD3, at least 1000 nM.

`CC(C)(O)c1cnc2c(F)cc(-c3nc(N[C@@H]4CCOC[C@H]4O)ncc3C#N)cc2c1` [Example 2, 4-(8-fluoro-3-(2-hydroxypropan-2-yl)quinolin-6-yl)-2-(((3S,4R)-3-hydroxytetrahydro-2H-pyran-4-yl)amino)pyrimidine-5-carbonitrile]: the IC50 on CDK4/CyclinD1 is 10 to 100 nM; at CDK6/CyclinD3, 100 to 1000 nM.

Consider `CC(C)(O)c1cnc2c(F)cc(-c3nc(N[C@@H]4CCOC[C@H]4O)ncc3Cl)cc2c1F` [Example 53], for which the values for the IC50 on CDK4/CyclinD1 and on CDK6/CyclinD3 were under 10 nM and 100 to 1000 nM, respectively.

On to `[2H]c1nc(N[C@@H]2CCOC[C@H]2O)nc(-c2cc(F)c3nc(C)c4c(c3c2)CNC(C)(C)C4)c1F` [Example 105], for which the IC50 on CDK4/CyclinD1 is under 10 nM; at CDK6/CyclinD3, 100 to 1000 nM.

Turning to `Cc1cc(C(C)(C)O)nc2c(F)cc(-c3nc(N[C@@H]4CCOC[C@H]4O)ncc3F)cc12` [Example 96], the IC50 on CDK4/CyclinD1 was 10 to 100 nM; on CDK6/CyclinD3 it was at least 1000 nM.

For the compound `CC(NC1CC1)c1cnc2c(F)cc(-c3nc(N[C@@H]4CCOC[C@H]4O)ncc3Cl)cc2c1Cl` (single isomer, unassigned) [Example 90b], the IC50 at CDK4/CyclinD1 is under 10 nM; at CDK6/CyclinD3, 100 to 1000 nM.

Turning to `CC1NCCc2cnc3c(F)cc(-c4nc(N[C@@H]5CCOC[C@H]5O)ncc4Cl)cc3c21` (single isomer, unassigned) [Example 31a], the IC50 was 10 to 100 nM at CDK4/CyclinD1 and at least 1000 nM on CDK6/CyclinD3.

For `[2H]c1nc(N[C@@H]2CCOC[C@H]2O)nc(-c2cc(F)c3nc(C)c(C(C)O)c(C)c3c2)c1F` (single isomer, unassigned) [Example 84a], the IC50 on CDK4/CyclinD1 is under 10 nM; at CDK6/CyclinD3 it was 10 to 100 nM.

As for `CC(C)(O)c1cnc2c(F)cc(-c3ccnc(N[C@@H]4CCOC[C@H]4O)n3)cc2c1Cl` [Example 97], the IC50 at CDK4/CyclinD1 lay in the range of 10 to 100 nM; at CDK6/CyclinD3, 100 to 1000 nM.

On to `CNC(C)c1cc2cc(-c3nc(N[C@@H]4CCOC[C@H]4O)ncc3F)cc(F)c2nc1C` (single isomer, unassigned) [Example 54a], for which the values for the IC50 at CDK4/CyclinD1 and at CDK6/CyclinD3 were under 10 nM and 100 to 1000 nM, respectively.

Turning to `Cc1c(C(C)NC2CC2)cnc2c(F)cc(-c3nc(N[C@@H]4CCOC[C@H]4O)ncc3F)cc12` (single isomer, unassigned) [Example 93b], the IC50 on CDK4/CyclinD1 is under 10 nM; on CDK6/CyclinD3 it was 100 to 1000 nM.

Regarding `[2H]c1nc2c(F)cc(-c3nc(N[C@@H]4CCOC[C@H]4O)ncc3Cl)cc2c2c1CC1(CC1)NC2` [Example 72], the IC50 at CDK4/CyclinD1 is under 10 nM; on CDK6/CyclinD3 it was 100 to 1000 nM.

Consider `Cc1c(C(C)NC2CC2)cnc2c(F)cc(-c3nc(N[C@@H]4CCOC[C@H]4O)ncc3Cl)cc12` (single isomer, unassigned) [Example 91a], for which the figures for the IC50 on CDK4/CyclinD1 and at CDK6/CyclinD3 were 10 to 100 nM and 100 to 1000 nM, respectively.

`Cc1nc2c(cnc3ccc(-c4nc(N[C@@H]5CCOC[C@H]5O)ncc4Cl)cc32)[nH]1` [Example 10, (3S,4R)-4-((5-chloro-4-(2-methyl-3H-imidazo[4,5-c]quinolin-8-yl)pyrimidin-2-yl)amino)tetrahydro-2H-pyran-3-ol]: the IC50 on CDK4/CyclinD1 was 100 to 1000 nM; on CDK6/CyclinD3, at least 1000 nM.

Take `CC(C)(O)c1cnc2c(F)cc(-c3cc(N[C@@H]4CCOC[C@H]4O)ncc3Cl)cc2c1Cl` [Example 42]: the IC50 is under 10 nM at CDK4/CyclinD1 and 100 to 1000 nM at CDK6/CyclinD3.

`CCC(O)c1cc2cc(-c3nc(N[C@@H]4CCOC[C@H]4O)ncc3Cl)cc(F)c2nc1C` (single isomer, unassigned) [Example 39b]: the figures for the IC50 at CDK4/CyclinD1 and at CDK6/CyclinD3 were under 10 nM and 100 to 1000 nM, respectively.

In the case of `Cc1nc2c(F)cc(-c3nc(N[C@@H]4CCOC[C@H]4O)ncc3Cl)cc2c2c1CCNC2` [Example 33], the IC50 at CDK4/CyclinD1 is under 10 nM; at CDK6/CyclinD3, 100 to 1000 nM.

`CCC(O)c1cc2cc(-c3nc(N[C@@H]4CCOC[C@H]4O)ncc3Cl)cc(F)c2nc1C` (single isomer, unassigned) [Example 39a]: the figures for the IC50 on CDK4/CyclinD1 and at CDK6/CyclinD3 were under 10 nM and 100 to 1000 nM, respectively.
